Measurements as given in PMC10581251, “Antisense inhibition of RNA polymerase α subunit of Clostridioides difficile” (Microbiology Spectrum, 2023).
Values after ≈ are worked out from the molar mass of the structure shown. Like-named read-outs stand apart in the source and are kept apart here.

Columns and labels:
C. difficile 1082 = test: MIC/MBC broth microdilution, C. difficile 1082; assay type: cell-based, Clostridioides difficile; details: for MIC: broth microdilution, anaerobic 48 hours 37°C, visual, read-out: MIC; for MBC: plated on BHIS agar, read-out: MBC
Procedure: (§1) The susceptibility of C. difficile isolates to the CPP-PNA conjugates or to the CPP alone was determined in vitro as described before with slight modifications ([43] [–] [45]). Briefly, the CPP-PNA conjugates, the CPP alone, and the antibiotics vancomycin and fidaxomicin were added in triplicate to the first row of ultra-low adhesion 96-well plates (Corning Inc., Corning, NY). A suspension of C. difficile equivalent to 0.5 McFarland solution was added to Mueller-Hilton II broth, which was then added to the ultra-low adhesion plate and then serially diluted. The plates were incubated anaerobically for 48 hours at 37°C. The minimum inhibitory concentration was defined as the lowest concentration of the CPP-PNA conjugate that could inhibit bacterial growth when observed visually.
(§2) The MIC and MBC experiments were repeated twice.

[1] = tested on: C. difficile ATCC BAA 1870; test: Effect of pH on MIC/MBC, C. difficile ATCC BAA 1870; assay type: cell-based, Clostridioides difficile; details: for MBC: read-out: MBC; for MIC: read-out: MIC
Procedure: as §1, §2
(§3) The susceptibility of C. difficile (ATCC 630 and ATCC BAA 1870) to the rpoA-TAT conjugate was evaluated over a pH range of 6 to 9 using the broth microdilution method ([43], [46] [–] [48]). The desired pH for susceptibility testing was attained by the addition of either 0.1 N HCL or 1 N NaOH to the media. The experiment was repeated twice.

C. difficile ATCC 43255 = test: MIC/MBC broth microdilution, C. difficile ATCC 43255; assay type: cell-based, Clostridioides difficile; details: for MIC: broth microdilution, anaerobic 48 hours 37°C, visual, read-out: MIC; for MBC: plated on BHIS agar, read-out: MBC
Procedure: as §1, §2

[2] = tested on: Lactobacillus brevis ATCC 14869; test: MIC gut microflora, Lactobacillus brevis; assay type: cell-based; details: broth microdilution, MRS broth, 48 hours, read-out: MIC
Procedure: (§4) The susceptibility of gut microflora strains to the rpoA-TAT conjugate was determined using the broth microdilution assay, as described above. Briefly, bacterial suspensions of Bifidobacterium sp. and Bacteroides sp., in supplemented BHIS broth, and Lactobacilli strains, in MRS broth, were added to ultra-low adhesion 96-well plates and serially diluted. The MIC was recorded after 48 hours.

C. difficile 1071 = test: MIC/MBC broth microdilution, C. difficile 1071; assay type: cell-based, Clostridioides difficile; details: for MIC: broth microdilution, anaerobic 48 hours 37°C, visual, read-out: MIC; for MBC: plated on BHIS agar, read-out: MBC
Procedure: as §1, §2

C. difficile 630 [3] = test: Effect of high bacterial inoculum on activity; assay type: cell-based, Clostridioides difficile; details: 8 hours; for Log reduction: vs no treatment
Procedure: The in vitro efficacy of the PNA constructs against a high inoculum size of C. difficile 630 was determined. Briefly, the PNA constructs and control antibiotics, at a concentration of 1× MIC, were added in triplicate to low adhesion microcentrifuge tubes (Corning Inc., Corning, NY). A high inoculum of C. difficile suspension equivalent to ~5 × 10^6 and ~5 × 10^7 cells was added to the tubes, which were incubated anaerobically at 37°C. The number of viable bacteria in each treatment group was determined by serial dilution and plating on BHIS agar plates at 8 hours and 24 hours post-incubation, respectively. The effect of a high inoculum on the activity of the PNA construct was repeated twice.

[4] = tested on: Bacteroides fragilis HM 714; test: MIC gut microflora, Bacteroides fragilis; assay type: cell-based; details: broth microdilution, supplemented BHIS broth, 48 hours, read-out: MIC
Procedure: as §4

[5] = tested on: C. difficile ATCC BAA 1870; test: MIC/MBC broth microdilution, C. difficile ATCC BAA 1870; assay type: cell-based, Clostridioides difficile; details: for MIC: broth microdilution, anaerobic 48 hours 37°C, visual, read-out: MIC; for MBC: plated on BHIS agar, read-out: MBC
Procedure: as §1, §2

[6] = tested on: Lactobacillus gasseri ATCC 19992; test: MIC gut microflora, Lactobacillus gasseri; assay type: cell-based; details: broth microdilution, MRS broth, 48 hours, read-out: MIC
Procedure: as §4

[7] = tested on: Bifidobacterium longum subsp. longum HM 846; test: MIC gut microflora, Bifidobacterium longum; assay type: cell-based
Procedure: as §4

C. difficile ATCC 630 [8] = test: Effect of pH on MIC/MBC, C. difficile ATCC 630; assay type: cell-based, Clostridioides difficile; details: for MBC: read-out: MBC; for MIC: read-out: MIC
Procedure: as §1, §2, §3

C. difficile ATCC 630 [9] = test: microbe, parasite or virus in culture
Procedure: as §1, §2

[10] = tested on: spore formation by C. difficile ATCC 630; test: Spore formation inhibition; assay type: cell-based, Clostridioides difficile; details: 0.5× MIC, 12 hours, compared to negative control (no treatment); for log reduction in the spore count: triplicate
Procedure: After the incubation period, the total bacterial count for each treatment group was determined by serial dilution and plating on BHIS agar plates supplemented with 0.1% taurocholic acid. To determine the presence of spores, the remaining bacterial culture from each treatment group was heated at 65°C for 30 minutes to ensure all vegetative cells were killed. The bacterial culture from each treatment group was then serially diluted and plated on BHIS agar plates supplemented with 0.1% taurocholic acid. The plates were incubated overnight, and the CFU counts for each treatment group were determined the following day.

C. difficile 630 [11] = test: Killing kinetics (time-kill assay); assay type: cell-based, Clostridioides difficile; details: 1× MIC, inoculum ~5 × 10^5 CFU/mL, triplicate
Procedure: The killing kinetics of the PNA construct was determined as described previously ([45] [–] [47]). Briefly, an overnight culture of C. difficile 630 was diluted 1:50 into fresh Mueller Hilton II broth (~10^5 CFU/mL) and added in triplicate to low adhesion microcentrifuge tubes containing either sterile water, the rpoA-TAT construct (1× MIC), or the positive controls vancomycin or fidaxomicin (1× MIC). The number of viable bacteria in each treatment group was determined by taking aliquots at 0, 4, 8, 12, 16, and 24 hours; these aliquots were then serially diluted and plated on BHIS agar plates. The plates were incubated anaerobically, and the number of colony-forming units for each treatment group was recorded the following day. The experiment was repeated twice.

[12] = Clostridioides difficile, BAA1870, pH 6
[13] = Clostridioides difficile, BAA1870, pH 7
[14] = Clostridioides difficile, BAA1870, pH 8
[15] = Clostridioides difficile, ATCC43255
[16] = Clostridioides difficile, BAA1870
[17] = broth microdilution, supplemented BHIS broth, 48 hours
[18] = Clostridioides difficile, ATCC630, pH 6
[19] = Clostridioides difficile, ATCC630, pH 7
[20] = Clostridioides difficile, ATCC630, pH 8

CCc1c(Cl)c(O)c(Cl)c(O)c1C(=O)O[C@H]1[C@H](O)[C@H](OC)[C@H](OC/C2=C\C=C\C[C@H](O)/C(C)=C/[C@H](CC)[C@@H](O[C@@H]3OC(C)(C)[C@@H](OC(=O)C(C)C)[C@H](O)[C@@H]3O)/C(C)=C/C(C)=C/C[C@@H]([C@@H](C)O)OC2=O)O[C@@H]1C [Fidaxomicin, fidaxomicin]
MIC (C. difficile 1082; Clostridioides difficile, 1082): 2 µM (≈ 2.12 µg/mL)
MBC (C. difficile 1082; Clostridioides difficile, 1082): 2 µM (≈ 2.12 µg/mL)
MBC [1, 12]: 2 µM (≈ 2.12 µg/mL)
MIC [1, 12]: 1 µM (≈ 1.06 µg/mL)
MBC [1, 13]: 2 µM (≈ 2.12 µg/mL)
MIC [1, 13]: 1 µM (≈ 1.06 µg/mL)
MBC [1, 14]: 4 µM (≈ 4.23 µg/mL)
MIC [1, 14]: 1 µM (≈ 1.06 µg/mL)
MIC (C. difficile ATCC 43255; [15]): 0.5 µM (≈ 0.529 µg/mL)
MBC (C. difficile ATCC 43255; [15]): 0.5 µM (≈ 0.529 µg/mL)
MIC ([2]; Levilactobacillus brevis, ATCC14869): > 2 µM
MIC (C. difficile 1071; Clostridioides difficile, 1071): 1 µM (≈ 1.06 µg/mL)
MBC (C. difficile 1071; Clostridioides difficile, 1071): 1 µM (≈ 1.06 µg/mL)
Log CFU (C. difficile 630 [3]; inoculum 5 × 10^6, 1× MIC): 0
Log reduction (C. difficile 630 [3]; inoculum 5 × 10^6, 1× MIC): 6.37
Log CFU (C. difficile 630 [3]; inoculum 5 × 10^7, 1× MIC): 0
Log reduction (C. difficile 630 [3]; inoculum 5 × 10^7, 1× MIC): 7.77
MIC ([4]; Bacteroides fragilis, HM714): > 2 µM
MIC [5, 16]: 1 µM (≈ 1.06 µg/mL)
MBC [5, 16]: 1 µM (≈ 1.06 µg/mL)
MIC ([6]; Lactobacillus gasseri, ATCC19992): > 2 µM
MIC ([7]; Bifidobacterium longum, 48 h): 0.125 µM (≈ 0.132 µg/mL)
MIC [7, 17]: 0.125 µM (≈ 0.132 µg/mL)
MBC (C. difficile ATCC 630 [8]; [18]): 1 µM (≈ 1.06 µg/mL)
MIC (C. difficile ATCC 630 [8]; [18]): 0.5 µM (≈ 0.529 µg/mL)
MBC (C. difficile ATCC 630 [8]; [19]): 1 µM (≈ 1.06 µg/mL)
MIC (C. difficile ATCC 630 [8]; [19]): 0.5 µM (≈ 0.529 µg/mL)
MBC (C. difficile ATCC 630 [8]; [20]): 4 µM (≈ 4.23 µg/mL)
MIC (C. difficile ATCC 630 [8]; [20]): 1 µM (≈ 1.06 µg/mL)
MBC (C. difficile ATCC 630 [9]; Clostridioides difficile, ATCC630): 0.5 µM (≈ 0.529 µg/mL)
MIC (C. difficile ATCC 630 [9]; Clostridioides difficile, ATCC630, 48 h): 0.5 µM (≈ 0.529 µg/mL)
reduction in the spore count [10]: 99.9%
log reduction in the spore count [10]: 3.44 log
time to eradication of bacteria (below the limit of detection, 250 CFU/mL) (C. difficile 630 [11]): ≤ 12 h

GRKKKRRQRRRYK-O-CATGGACAAAAC-NH2 [rpoA-TAT, PNA oligomer antisense to C. difficile rpoA covalently conjugated to the TAT cell penetrating peptide]
MIC (C. difficile 1082): 4 µM
MBC (C. difficile 1082): 4 µM
MBC ([1]; pH 6): 8 µM
MIC ([1]; pH 6): 8 µM
MBC ([1]; pH 7): 8 µM
MIC ([1]; pH 7): 8 µM
MIC (C. difficile ATCC 43255): 8 µM
MBC (C. difficile ATCC 43255): 8 µM
MIC [2]: >32 µM
MIC (C. difficile 1071): 8 µM
MBC (C. difficile 1071): 8 µM
Log CFU (C. difficile 630 [3]; inoculum 5 × 10^6, 1× MIC): 0
Log reduction (C. difficile 630 [3]; inoculum 5 × 10^6, 1× MIC): 6.37
Log CFU (C. difficile 630 [3]; inoculum 5 × 10^7, 1× MIC): 0
Log reduction (C. difficile 630 [3]; inoculum 5 × 10^7, 1× MIC): 7.77
MIC [4]: >32 µM
MIC [5]: 8 µM
MBC [5]: 8 µM
MIC [6]: >32 µM
MIC [7, 17]: >32 µM
MBC (C. difficile ATCC 630 [8]; pH 6): 8 µM
MIC (C. difficile ATCC 630 [8]; pH 6): 8 µM
MBC (C. difficile ATCC 630 [8]; pH 7): 8 µM
MIC (C. difficile ATCC 630 [8]; pH 7): 8 µM
MBC (C. difficile ATCC 630 [8]; pH 8): 8 µM
MIC (C. difficile ATCC 630 [8]; pH 8): 8 µM
MBC (C. difficile ATCC 630 [9]; aliquots of wells without growth plated on BHIS agar, repeated twice): 8 µM
MIC (C. difficile ATCC 630 [9]; broth microdilution, Mueller-Hilton II broth, anaerobic 48 hours 37°C, visual, triplicate, repeated twice): 8 µM
reduction in the spore count [10]: 99.9%
log reduction in the spore count [10]: 3.44 log
time to eradication of bacteria (below the limit of detection, 250 CFU/mL) (C. difficile 630 [11]): ≤ 8 h
